# Data published in patent publication US8946215B2, “Hydroxy-substituted imidazo[1,2-a]pyridinecarboxamides and their use” (Bayer Pharma Aktiengesellschaft, priority 2012, dated 2015).
# Target: T1, recombinant guanylate cyclase reporter cell line (Rattus norvegicus, UniProt P19686+P20595)
# T1 construct: expressed in transfected cells
# T1 sequence (P20595 1-619): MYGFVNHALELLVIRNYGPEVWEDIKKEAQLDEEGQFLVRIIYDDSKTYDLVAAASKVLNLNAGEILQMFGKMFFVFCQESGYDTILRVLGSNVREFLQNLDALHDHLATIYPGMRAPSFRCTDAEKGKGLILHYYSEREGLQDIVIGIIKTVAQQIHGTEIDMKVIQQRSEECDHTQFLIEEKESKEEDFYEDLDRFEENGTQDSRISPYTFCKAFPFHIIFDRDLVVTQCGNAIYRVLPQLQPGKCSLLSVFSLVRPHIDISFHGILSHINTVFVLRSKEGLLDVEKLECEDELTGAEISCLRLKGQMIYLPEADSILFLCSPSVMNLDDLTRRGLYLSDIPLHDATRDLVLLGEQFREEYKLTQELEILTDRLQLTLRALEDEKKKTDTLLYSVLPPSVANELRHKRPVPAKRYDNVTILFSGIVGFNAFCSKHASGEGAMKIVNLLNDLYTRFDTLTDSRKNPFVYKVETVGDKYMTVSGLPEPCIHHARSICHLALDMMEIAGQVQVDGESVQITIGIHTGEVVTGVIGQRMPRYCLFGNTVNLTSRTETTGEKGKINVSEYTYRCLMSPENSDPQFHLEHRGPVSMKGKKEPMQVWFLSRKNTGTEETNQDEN
# T1 sequence (P19686 1-690): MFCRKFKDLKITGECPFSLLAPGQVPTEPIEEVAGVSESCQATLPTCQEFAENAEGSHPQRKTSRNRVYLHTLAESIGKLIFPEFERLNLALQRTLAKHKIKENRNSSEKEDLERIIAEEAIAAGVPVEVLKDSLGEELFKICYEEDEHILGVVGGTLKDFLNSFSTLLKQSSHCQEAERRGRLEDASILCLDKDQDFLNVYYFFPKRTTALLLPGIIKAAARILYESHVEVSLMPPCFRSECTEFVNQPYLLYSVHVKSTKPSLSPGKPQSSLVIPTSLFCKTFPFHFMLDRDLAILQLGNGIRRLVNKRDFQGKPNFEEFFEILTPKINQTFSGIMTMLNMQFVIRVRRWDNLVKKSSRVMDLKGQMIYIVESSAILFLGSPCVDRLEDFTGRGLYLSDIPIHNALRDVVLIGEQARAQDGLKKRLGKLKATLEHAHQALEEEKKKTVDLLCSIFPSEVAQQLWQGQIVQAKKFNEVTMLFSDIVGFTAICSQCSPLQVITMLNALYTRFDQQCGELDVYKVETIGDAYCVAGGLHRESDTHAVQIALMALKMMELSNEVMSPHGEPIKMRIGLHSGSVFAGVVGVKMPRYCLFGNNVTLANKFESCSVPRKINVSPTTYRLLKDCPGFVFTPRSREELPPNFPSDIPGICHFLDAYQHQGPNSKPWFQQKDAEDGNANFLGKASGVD
# Assay: Action on recombinant guanylate cyclase reporter cell line
# Format: cell-based
# Conditions: in some cases mean values obtained from individual determinations
# Procedure: B-2. Action on Recombinant Guanylate Cyclase Reporter Cell Line
# The cellular action of the compounds according to the invention is determined on a recombinant guanylate cyclase reporter cell line, as described in F. Wunder et al., Anal. Biochem. 339, 104-112 (2005).
# Representative values (MEC=minimal effective concentration) for the compounds according to the invention are shown in the following table (in some cases as mean values obtained from individual determinations): […]
row,SMILES,MEC (minimal effective concentration)
1,"Cc1nc2c(OCc3c(F)cccc3F)cccn2c1C(=O)NC(CO)CC(F)(F)F (single isomer, unassigned; ent-8) [Example 121, ent-8-[(2,6-Difluorobenzyl)oxy]-2-methyl-N-(4,4,4-trifluoro-1-hydroxybutan-2-yl)imidazo[1,2-a]-pyridine-3-carboxamide]",0.03 µM
2,"Cc1nc2c(OCc3c(F)cccc3F)cccn2c1C(=O)NC(CO)CCC(F)(F)F (single isomer, unassigned; ent-8) [Example 122, ent-8-[(2,6-Difluorobenzyl)oxy]-2-methyl-N-(5,5,5-trifluoro-1-hydroxypentan-2-yl)imidazo[1,2-a]-pyridine-3-carboxamide]",0.03 µM
3,"Cc1nc2c(OCc3c(F)cccc3F)cccn2c1C(=O)NC(CO)CCCC(F)(F)F (single isomer, unassigned; ent-8) [Example 123, ent-8-[(2,6-Difluorobenzyl)oxy]-2-methyl-N-(6,6,6-trifluoro-1-hydroxyhexan-2-yl)imidazo[1,2-a]-pyridine-3-carboxamide]",0.03 µM
4,"Cc1nc2c(OCc3c(F)cccc3F)cccn2c1C(=O)NC(CC(F)(F)F)C(C)(C)O (single isomer, unassigned; ent-8) [Example 154, ent-8-[(2,6-Difluorobenzyl)oxy]-2-methyl-N-(1,1,1-trifluoro-4-hydroxy-4-methylpentan-3-yl)-imidazo[1,2-a]pyridine-3-carboxamide]",0.03 µM
5,"Cc1nc2c(OCc3c(F)cccc3F)cccn2c1C(=O)NC(CCC(F)(F)F)C(C)(C)O (single isomer, unassigned; ent-8) [Example 155, ent-8-[(2,6-Difluorobenzyl)oxy]-2-methyl-N-(6,6,6-trifluoro-2-hydroxy-2-methylhexan-3-yl)-imidazo[1,2-a]pyridine-3-carboxamide]",0.1 µM
6,"Cc1nc2c(OCc3c(F)cccc3F)cccn2c1C(=O)NC(CCCC(F)(F)F)C(C)(C)O (single isomer, unassigned; ent-8) [Example 156, ent-8-[(2,6-Difluorobenzyl)oxy]-2-methyl-N-(7,7,7-trifluoro-2-hydroxy-2-methylheptan-3-yl)-imidazo[1,2-a]pyridine-3-carboxamide]",0.03 µM
7,"CCOCC(CO)NC(=O)c1c(C)nc2c(OCc3c(F)cccc3F)cccn12 (single isomer, unassigned; ent-8) [Example 161, ent-8-[(2,6-Difluorobenzyl)oxy]-N-(1-ethoxy-3-hydroxypropan-2-yl)-2-methylimidazo[1,2-a]-pyridine-3-carboxamide (enantiomer A)]",1.0 µM
8,"CCCCC(NC(=O)c1c(C)nc2c(OC(C)c3c(F)cccc3F)cc(C)cn12)C(C)(C)O (single isomer, unassigned; ent-8) [Example 171, ent-8-[1-(2,6-Difluorophenyl)ethoxy]-N-(2-hydroxy-2-methylheptan-3-yl)-2,6-dimethylimidazo-[1,2-a]pyridine-3-carboxamide]",1.0 µM
9,"Cc1nc2c(OCc3ncccc3F)cccn2c1C(=O)NC(CCCC(F)(F)F)C(C)(C)O (single isomer, unassigned; ent-8) [Example 182, ent-8-[(3-fluoropyridin-2-yl)methoxy]-2-methyl-N-(7,7,7-trifluoro-2-hydroxy-2-methylheptan-3-yl)imidazo[1,2-a]pyridine-3-carboxamide (enantiomer A)]",0.65 µM
10,"Cc1nc2c(OCc3ncccc3F)cccn2c1C(=O)NC(CCCC(F)(F)F)C(C)(C)O (single isomer, unassigned; ent-8) [Example 183, ent-8-[(3-fluoropyridin-2-yl)methoxy]-2-methyl-N-(7,7,7-trifluoro-2-hydroxy-2-methylheptan-3-yl)imidazo[1,2-a]pyridine-3-carboxamide (enantiomer B)]",0.3 µM
11,"Cc1cc(OCc2ncccc2F)c2nc(C)c(C(=O)NC(CC(F)(F)F)C(C)(C)O)n2c1 (single isomer, unassigned; ent-8) [Example 185, ent-8-[(3-fluoropyridin-2-yl)methoxy]-2,6-dimethyl-N-(1,1,1-trifluoro-4-hydroxy-4-methylpentan-3-yl)imidazo[1,2-a]pyridine-3-carboxamide (enantiomer B)]",0.3 µM
12,"Cc1cc(OCc2c(F)cncc2F)c2nc(C)c(C(=O)NC(CCCC(F)(F)F)C(C)(C)O)n2c1 (single isomer, unassigned; ent-8) [Example 189, ent-8-[(3,5-difluoropyridine-4-yl)methoxy]-2,6-dimethyl-N-(7,7,7-trifluoro-2-hydroxy-2-methylheptan-3-yl)imidazo[1,2-a]pyridine-3-carboxamide (enantiomer A)]",1 µM
13,"Cc1cc(OCc2ncccc2F)c2nc(C)c(C(=O)NC(CCCC(F)(F)C(F)(F)F)C(C)(C)O)n2c1 (single isomer, unassigned; ent-8) [Example 191, ent-8-[(3-fluoropyridin-2-yl)methoxy]-2,6-dimethyl-N-(7,7,8,8,8-pentafluoro-2-hydroxy-2-methyloctan-3-yl)imidazo[1,2-a]pyridine-3-carboxamide (enantiomer A)]",3 µM
14,"Cc1cc(OCc2ncccc2F)c2nc(C)c(C(=O)NC(CCCC(F)(F)C(F)(F)F)C(C)(C)O)n2c1 (single isomer, unassigned; ent-8) [Example 192, ent-8-[(3-fluoropyridin-2-yl)methoxy]-2,6-dimethyl-N-(7,7,8,8,8-pentafluoro-2-hydroxy-2-methyloctan-3-yl)imidazo[1,2-a]pyridine-3-carboxamide (enantiomer B)]",2 µM
15,"Cc1cc(OCc2c(F)cncc2F)c2nc(C)c(C(=O)NC(CCC(F)(F)C(F)(F)F)C(C)(C)O)n2c1 (single isomer, unassigned; ent-8) [Example 193, ent-8-[(3,5-difluoropyridine-4-yl)methoxy]-2,6-dimethyl-N-(6,6,7,7,7-pentafluoro-2-hydroxy-2-methylheptan-3-yl)imidazo[1,2-a]pyridine-3-carboxamide (enantiomer A)]",1 µM
16,"Cc1cc(OCc2ncccc2F)c2nc(C)c(C(=O)NC(CCC(O)C(F)(F)F)C(C)(C)O)n2c1 (single isomer, unassigned; ent-8) [Example 196, ent-8-[(3-fluoropyridin-2-yl)methoxy]-2,6-dimethyl-N-(7,7,7-trifluoro-2,6-dihydroxy-2-methylheptan-3-yl)imidazo[1,2-a]pyridine-3-carboxamide (enantiomer D)]",3 µM
17,"CCCC[C@H](CO)NC(=O)c1c(C)nc2c(OCc3c(F)cccc3F)cccn12 [Example 1, 8-[(2,6-Difluorobenzyl)oxy]-N-[(2R)-1-hydroxyhexan-2-yl]-2-methylimidazo[1,2-a]pyridine-3-carboxamide]",0.05 µM
18,CCCC[C@H](CO)NC(=O)c1c(C)nc2c(OCc3c(F)ccc(F)c3F)cccn12 [Example 2],0.03 µM
19,CCCC[C@H](CO)NC(=O)c1c(C)nc2c(OCc3c(F)cccc3Cl)cccn12 [Example 3],0.1 µM
20,CCCC[C@H](CO)NC(=O)c1c(C)nc2c(OCc3ccccc3Cl)cccn12 [Example 4],0.1 µM
21,CCCC[C@H](CO)NC(=O)c1c(C)nc2c(OCc3ccccc3F)cccn12 [Example 5],0.1 µM
22,CCCC[C@H](CO)NC(=O)c1c(C)nc2c(OCc3cccc(F)c3)cccn12 [Example 6],0.1 µM
23,CCCC[C@H](CO)NC(=O)c1c(C)nc2c(OCc3c(F)c(F)cc(F)c3F)cccn12 [Example 7],0.3 µM
24,CCCC[C@H](CO)NC(=O)c1c(C)nc2c(OCc3c(Cl)cccc3Cl)cccn12 [Example 8],0.3 µM
